Patent publication US10634663B2, “Determination of binding constants by means of equilibrium shifting” (Sovicell GmbH, priority 2014, dated 2020)

System: Human plasma
Experiment: Equilibrium shifting: dissociation constant for soluble target and fraction bound to whole human plasma
Description: Determination of the affinity or dissociation constants is carried out in an advantageous embodiment according to equation I:
[formula] wherein a plurality of binding constant values for KD^H and KD^P are first inserted into the equation and the respective APA concentrations to be expected for these values are calculated. The calculated APA concentrations are then compared with the measured APA concentration. In a further step, the smallest deviation between the calculated APA concentration and the measured APA concentration is determined by means of a numerical optimization method, preferably the “least squares” optimization method, and the formula γ=(APAmeasured−APAcalculated)^2. The lowest value for the deviation is selected from these deviations. […]
10 μL each of a 10 to 2000 μM stock solution of the test substances is added to the cavities. […] The concentration in the supernatant is determined by means of suitable methods, such as LC/MS/MS or scintillation counting. The unbound fraction of the substance is determined in cavities with the immobilized target relative to the reference samples. This obviates the need for calibration, as long as the signal to concentration ratio for the test substances and the quantitation system used follow a linear course. […]

fraction of the peptide bound to whole human plasma (undiluted) (calculated from KD^P and [P] 600 μM): 98.8%
peptide dissolved in the plasma in free, or unbound, form (whole human plasma (undiluted)): 1.2%
SMILES: CCCCCCCCCCCCCCCC(=O)N[C@@H](CCC(=O)NCCCC[C@H](NC(=O)[C@H](C)NC(=O)[C@H](C)NC(=O)[C@H](CCC(N)=O)NC(=O)CNC(=O)[C@H](CCC(=O)O)NC(=O)[C@H](CC(C)C)NC(=O)[C@H](Cc1ccc(O)cc1)NC(=O)[C@H](CO)NC(=O)[C@H](CO)NC(=O)[C@@H](NC(=O)[C@H](CC(=O)O)NC(=O)[C@H](CO)NC(=O)[C@@H](NC(=O)[C@H](Cc1ccccc1)NC(=O)[C@@H](NC(=O)CNC(=O)[C@H](CCC(=O)O)NC(=O)[C@H](C)NC(=O)[C@@H](N)Cc1cnc[nH]1)[C@@H](C)O)[C@@H](C)O)C(C)C)C(=O)N[C@@H](CCC(=O)O)C(=O)N[C@@H](Cc1ccccc1)C(=O)N[C@H](C(=O)N[C@@H](C)C(=O)N[C@@H](Cc1c[nH]c2ccccc12)C(=O)N[C@@H](CC(C)C)C(=O)N[C@H](C(=O)N[C@@H](CCCNC(=N)N)C(=O)NCC(=O)N[C@@H](CCCNC(=N)N)C(=O)NCC(=O)O)C(C)C)[C@@H](C)CC)C(=O)O [liraglutide]
